Data reported in PubChem BioAssay (NCI).
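How tested: cells in 96-well plates exposed to compound for 48 hours at five concentrations. TGI marks complete inhibition of growth.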

Key:
Assay in all cases: growth of human tumour cells (NCI), 48 h
LOX IMVI melanoma = system: LOX IMVI melanoma
MDA-MB-435 = system: MDA-MB-435
TK-10 renal = system: TK-10 renal
RPMI-8226 leukemia = system: RPMI-8226 leukemia
MDA-MB-231 breast = system: MDA-MB-231 breast
NCI-H23 lung = system: NCI-H23 lung
DU-145 prostate = system: DU-145 prostate
SNB-75 CNS = system: SNB-75 CNS
RXF 393 renal = system: RXF 393 renal

Structure (SMILES): CN(/N=C/c1ccc(Cl)cc1)C1=NCCCCN1
- TGI (LOX IMVI melanoma): > 100 µM
- TGI (MDA-MB-435): > 100 µM
- TGI (TK-10 renal): > 100 µM
- TGI (RPMI-8226 leukemia): > 100 µM
- TGI (MDA-MB-231 breast): > 100 µM
- TGI (NCI-H23 lung): > 100 µM
- TGI (DU-145 prostate): > 100 µM
- TGI (SNB-75 CNS): > 100 µM

Structure (SMILES): COc1ccc(N2C(=O)C3c4[nH]c5ccccc5c4C4c5ccccc5CC4C3C2=O)cc1 (configuration not stated)
- TGI (LOX IMVI melanoma): > 100 µM
- TGI (MDA-MB-435): > 100 µM
- TGI (TK-10 renal): > 100 µM
- TGI (MDA-MB-231 breast): > 100 µM
- TGI (NCI-H23 lung): > 100 µM
- TGI (DU-145 prostate): > 100 µM
- TGI (RXF 393 renal): > 100 µM
- TGI (SNB-75 CNS): > 100 µM

Structure (SMILES): CC(=O)O[C@H]1C[C@](C)(O)[C@@]23CC([C@@H](OC(=O)C(C)(C)O)[C@@H](OC(C)=O)C2(COC(=O)c2ccccc2)[C@H]1OC(C)=O)C(C)(C)O3 (some centres not stated)
- TGI (LOX IMVI melanoma): > 100 µM
- TGI (MDA-MB-435): > 100 µM
- TGI (TK-10 renal): > 100 µM
- TGI (RPMI-8226 leukemia): > 100 µM
- TGI (MDA-MB-231 breast): > 100 µM
- TGI (NCI-H23 lung): > 100 µM
- TGI (DU-145 prostate): > 100 µM
- TGI (RXF 393 renal): > 100 µM

Structure (SMILES): O=C(c1ccccc1)c1c(C(F)(F)F)n([O-])c2cc(F)c(F)cc2[n+]1=O
- TGI (MDA-MB-435): 4.14 µM
- TGI (TK-10 renal): 0.816 µM
- TGI (RPMI-8226 leukemia): > 100 µM
- TGI (NCI-H23 lung): 0.789 µM
- TGI (DU-145 prostate): 8.71 µM
- TGI (RXF 393 renal): 2.22 µM

Structure (SMILES): COc1cc(C(O)C(=O)c2cnc3cc([N+](=O)[O-])ccc3n2)ccc1O (configuration not stated)
- TGI (LOX IMVI melanoma): > 100 µM
- TGI (TK-10 renal): > 100 µM
- TGI (RPMI-8226 leukemia): > 100 µM
- TGI (RXF 393 renal): > 100 µM
- TGI (SNB-75 CNS): > 100 µM

Structure (SMILES): C=CCOCn1ccc(N)nc1=O
- TGI (LOX IMVI melanoma): > 100 µM
- TGI (MDA-MB-435): > 100 µM
- TGI (TK-10 renal): > 100 µM
- TGI (RPMI-8226 leukemia): > 100 µM
- TGI (MDA-MB-231 breast): > 100 µM
- TGI (NCI-H23 lung): > 100 µM
- TGI (DU-145 prostate): > 100 µM
- TGI (SNB-75 CNS): > 100 µM

Structure (SMILES): Cc1ccc(NC(=O)/C(=N/NC(=O)C[N+](C)(C)C)c2nc3ccccc3[nH]c2=O)cc1
- TGI (LOX IMVI melanoma): > 100 µM
- TGI (TK-10 renal): > 100 µM
- TGI (RPMI-8226 leukemia): > 100 µM
- TGI (NCI-H23 lung): > 100 µM
- TGI (RXF 393 renal): > 100 µM
- TGI (SNB-75 CNS): > 100 µM

Structure (SMILES): COC12C=CC(CC1)C(C)(C)C2OS(C)(=O)=O (configuration not stated)
- TGI (MDA-MB-435): > 100 µM
- TGI (TK-10 renal): > 100 µM
- TGI (RPMI-8226 leukemia): > 100 µM
- TGI (MDA-MB-231 breast): > 100 µM
- TGI (NCI-H23 lung): > 100 µM
- TGI (DU-145 prostate): > 100 µM
- TGI (RXF 393 renal): > 100 µM
- TGI (SNB-75 CNS): > 100 µM

Structure (SMILES): Cn1cnc(SC2=C3C(=O)C=C4S[C@H]5C[C@]42c2c(c(O)c4c6c2=[N+]3CCC=6C=N4)N5)c1CC(N)C(=O)O (some centres not stated)
- TGI (LOX IMVI melanoma): 26.1 µM
- TGI (TK-10 renal): > 100 µM
- TGI (RPMI-8226 leukemia): 55.7 µM
- TGI (NCI-H23 lung): 23.8 µM
- TGI (RXF 393 renal): 43.8 µM
- TGI (SNB-75 CNS): 34.1 µM

Structure (SMILES): O=C(Nc1ccc(Sc2ccc(N=Nc3c(O)c(S(=O)(=O)O)cc4cc(S(=O)(=O)O)ccc34)cc2)cc1)c1ccc(N=Nc2c(O)c(S(=O)(=O)O)cc3cc(S(=O)(=O)O)ccc23)cc1
- TGI (LOX IMVI melanoma): 34.5 µM
- TGI (TK-10 renal): > 100 µM
- TGI (RPMI-8226 leukemia): 56.2 µM
- TGI (NCI-H23 lung): 61.2 µM
- TGI (RXF 393 renal): 71.7 µM
- TGI (SNB-75 CNS): > 100 µM

Structure (SMILES): COc1ccc(-c2nc(-c3cnccn3)n(Cc3ccccc3)n2)cc1
- TGI (LOX IMVI melanoma): > 100 µM
- TGI (MDA-MB-435): > 100 µM
- TGI (RPMI-8226 leukemia): > 100 µM
- TGI (MDA-MB-231 breast): > 100 µM
- TGI (NCI-H23 lung): > 100 µM
- TGI (DU-145 prostate): > 100 µM
- TGI (RXF 393 renal): > 100 µM
- TGI (SNB-75 CNS): > 100 µM

Structure (SMILES): O=C1CC(C(COCc2ccccc2)OCc2ccccc2)CC(=O)N1 (configuration not stated)
- TGI (LOX IMVI melanoma): > 100 µM
- TGI (MDA-MB-435): > 100 µM
- TGI (TK-10 renal): > 100 µM
- TGI (RPMI-8226 leukemia): > 100 µM
- TGI (MDA-MB-231 breast): > 100 µM
- TGI (NCI-H23 lung): > 100 µM
- TGI (DU-145 prostate): > 100 µM

Structure (SMILES): CCn1c(=O)c2c3ccc(OC)cc3[nH]c2c2ccc(OC)cc21
- TGI (MDA-MB-435): > 100 µM
- TGI (TK-10 renal): > 100 µM
- TGI (MDA-MB-231 breast): > 100 µM
- TGI (NCI-H23 lung): > 100 µM
- TGI (DU-145 prostate): > 100 µM
- TGI (RXF 393 renal): > 100 µM
- TGI (SNB-75 CNS): 96.1 µM

Structure (SMILES): C[C@]12CC[C@H](O)CC1=CC[C@@H]1[C@@H]2CC[C@]2(C)C(=O)/C(=C/c3ccc([N+](=O)[O-])cc3)C[C@@H]12
- TGI (LOX IMVI melanoma): 22.5 µM
- TGI (MDA-MB-435): > 100 µM
- TGI (RPMI-8226 leukemia): > 100 µM
- TGI (NCI-H23 lung): 57 µM
- TGI (DU-145 prostate): 44.9 µM
- TGI (RXF 393 renal): 25 µM
- TGI (SNB-75 CNS): 9.67 µM

Structure (SMILES): O=C(N[C@H]1CCC[C@H]1C(=O)Nc1ccc(C(F)(F)F)cc1)OCc1ccccc1
- TGI (LOX IMVI melanoma): > 100 µM
- TGI (MDA-MB-435): > 100 µM
- TGI (TK-10 renal): > 100 µM
- TGI (RPMI-8226 leukemia): > 100 µM
- TGI (MDA-MB-231 breast): > 100 µM
- TGI (NCI-H23 lung): > 100 µM
- TGI (DU-145 prostate): > 100 µM
- TGI (RXF 393 renal): > 100 µM

Structure (SMILES): CC(=O)OCC1OC(SC2=NC(=O)/C(=C/c3ccccc3)S2)C(OC(C)=O)C(OC(C)=O)C1OC(C)=O (configuration not stated)
- TGI (LOX IMVI melanoma): 42.9 µM
- TGI (MDA-MB-435): 38.8 µM
- TGI (RPMI-8226 leukemia): 66.3 µM
- TGI (MDA-MB-231 breast): 44.5 µM
- TGI (NCI-H23 lung): > 100 µM
- TGI (DU-145 prostate): > 100 µM
- TGI (RXF 393 renal): 67.6 µM
- TGI (SNB-75 CNS): 44.7 µM

Structure (SMILES): COc1cc([C@@H]2c3cc4c(cc3[C@@H](c3c(O)cc(O)c5c3O[C@H](c3ccc(O)c(O)c3)[C@H](OC(=O)c3cc(O)c(O)c(O)c3)C5)[C@H]3COC(=O)[C@H]23)OCO4)cc(OC)c1O
- TGI (LOX IMVI melanoma): > 100 µM
- TGI (MDA-MB-435): 57.3 µM
- TGI (TK-10 renal): > 100 µM
- TGI (RPMI-8226 leukemia): > 100 µM
- TGI (MDA-MB-231 breast): > 100 µM
- TGI (NCI-H23 lung): > 100 µM
- TGI (DU-145 prostate): > 100 µM
- TGI (RXF 393 renal): > 100 µM

Structure (SMILES): CC1CCOc2ccc(cc2)C=Nc2ccc(cc2)-c2ccc(cc2)N=Cc2ccc(cc2)OCC1 (configuration not stated)
- TGI (LOX IMVI melanoma): > 100 µM
- TGI (MDA-MB-435): > 100 µM
- TGI (TK-10 renal): > 100 µM
- TGI (RPMI-8226 leukemia): > 100 µM
- TGI (MDA-MB-231 breast): > 100 µM
- TGI (NCI-H23 lung): > 100 µM
- TGI (DU-145 prostate): > 100 µM

Structure (SMILES): COc1cc(C2c3cc(OC)c(OC)c(O)c3C(=O)C3CCC(=O)N32)cc(OC)c1OC (configuration not stated)
- TGI (LOX IMVI melanoma): > 100 µM
- TGI (MDA-MB-435): 39.5 µM
- TGI (TK-10 renal): > 100 µM
- TGI (RPMI-8226 leukemia): > 100 µM
- TGI (MDA-MB-231 breast): > 100 µM
- TGI (DU-145 prostate): > 100 µM
- TGI (SNB-75 CNS): > 100 µM

Structure (SMILES): CC(=O)c1ccc2c3c1O[C@H]1c4[nH]c5ccccc5c4C[C@@]4(O)[C@@H](C2)N(CC2CC2)CC[C@]314
- TGI (LOX IMVI melanoma): 33 µM
- TGI (MDA-MB-435): 32.5 µM
- TGI (TK-10 renal): 32.4 µM
- TGI (RPMI-8226 leukemia): 45.1 µM
- TGI (MDA-MB-231 breast): 25.7 µM
- TGI (NCI-H23 lung): 48.1 µM
- TGI (DU-145 prostate): 39.5 µM
- TGI (RXF 393 renal): 27.3 µM

Structure (SMILES): CC1=NN(C(=O)Cc2ccccc2)C(=O)/C1=C\c1ccccc1O
- TGI (LOX IMVI melanoma): > 100 µM
- TGI (TK-10 renal): > 100 µM
- TGI (RPMI-8226 leukemia): > 100 µM
- TGI (NCI-H23 lung): > 100 µM
- TGI (RXF 393 renal): > 100 µM

Structure (SMILES): OCC1OC(c2ccccc2)CC1O (configuration not stated)
- TGI (LOX IMVI melanoma): > 100 µM
- TGI (MDA-MB-435): > 100 µM
- TGI (TK-10 renal): > 100 µM
- TGI (MDA-MB-231 breast): > 100 µM
- TGI (DU-145 prostate): > 100 µM
- TGI (RXF 393 renal): > 100 µM
- TGI (SNB-75 CNS): > 100 µM

Structure (SMILES): O=c1[nH]nc(Cc2ccc(Cl)cc2)n1/N=C/c1c[nH]c2ccccc12
- TGI (LOX IMVI melanoma): > 100 µM
- TGI (MDA-MB-435): > 100 µM
- TGI (TK-10 renal): > 100 µM
- TGI (RPMI-8226 leukemia): > 100 µM
- TGI (MDA-MB-231 breast): > 100 µM
- TGI (NCI-H23 lung): > 100 µM
- TGI (DU-145 prostate): > 100 µM
- TGI (SNB-75 CNS): > 100 µM

Structure (SMILES): O=S(c1ccc(Cl)cc1)c1ccccc1C1=NCCN1 (configuration not stated)
- TGI (MDA-MB-435): > 100 µM
- TGI (TK-10 renal): > 100 µM
- TGI (RPMI-8226 leukemia): > 100 µM
- TGI (MDA-MB-231 breast): > 100 µM
- TGI (NCI-H23 lung): > 100 µM
- TGI (DU-145 prostate): > 100 µM
- TGI (RXF 393 renal): > 100 µM
- TGI (SNB-75 CNS): > 100 µM
